Laboratory results as given in patent publication US12612412B2, “Antiviral heterocyclic compounds” (Enanta Pharmaceuticals, Inc., priority 2021, dated 2026).
Where two headings read alike, the source gives them in different places.

Columns and labels:
[1] = system: genotype A, "Long" strain RSV; experiment: RSV-A assay (CPE protection in Hep-2 cells, ATPlite readout); assay type: cell-based, Human respiratory syncytial virus (HRSV); conditions: genotype A “Long” strain RSV, MOI 0.1, CPE protection, read-out: Human RSV-A (“Long”)
Summary of the method: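 Hep-2 cells (8,000/well) infected with RSV Long strain at MOI 0.1 in the presence of 2-fold compound dilutions in duplicate. After 5 days, cell viability measured by ATPlite luminescence, normalized between virus-only and uninfected cell controls; EC50 reported.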

[2] = system: recombinant HMPV CAN97-83 containing eGFP (MPV-GFP1); experiment: HMPV antiviral assay Method-A (MPV-GFP1 eGFP fluorescence in Vero E6 cells); assay type: cell-based, Human metapneumovirus (HMPV); conditions: read-out: HMPV EC50
Description: HMPV antiviral activity was evaluated using a recombinant version of HMPV CAN97-83 engineered to contain the coding sequence for enhanced green fluorescence protein (eGFP) in the 3′ end of the virus genome (MPV-GFP1, ViraTree). Vero E6 cells ([…]) were seeded at a density of 12,000 cells/100 μL/well into 96-well cell plates one day prior to the assay. On the day of screening, the cell culture medium was aspirated from the wells and cells were washed twice with serum-free Eagle's Modified Essential Medium (EMEM, ATCC #) containing 1% penicillin-streptomycin (Invitrogen) (SF-EMEM). Cell washes were performed by dispensing 100 μL SF-EMEM per well and immediately aspirating the wash medium from the well. Following the second wash step, serum-free OptiMEM (Invitrogen, Cat No.) (SF-OptiMEM) containing 0.5 μg/mL TPCK-Trypsin (VENDOR) and 1% penicillin-streptomycin was added to the cells at 50 μL/well. Compounds were added into the 96-well plates using a JANUS automated liquid handling system (VENDOR). Compounds were initially diluted 1:50 into an intermediate 96-well plate containing SF-OptiMEM prior to transfer to the assay plate (25 μL/well). Each of the test compounds were tested in duplicate wells at final concentrations starting from 8 μM or 2 μM using ½ stepwise dilutions for a total of 8 points. Virus infection was performed by preparing a working stock of MPV-GFP1 at a multiplicity of infection (MOI) equal to 0.05/25 μL and aliquoting 25 μL of virus inoculum to the compound and positive control wells. SF-OptiMEM was added (25 μL/well) to the appropriate wells to serve as a virus-free negative control for the assay. The final DMSO concentration of all wells is 0.5%. Plates were incubated at 32° C., 5% CO2 for 5 days.
After 5 days incubation, eGFP fluorescence intensity was measured at (X) […] wavelength using a Spectramax i3× plate reader (VENDOR). Percent viral inhibition was calculated using the following equation: y=[…]
Where XQ is the fluorescence intensity measured in a well containing recombinant MPV-GFP1-infected, compound-treated cells and XP is the average fluorescence intensity measured in the wells containing untreated cells infected with recombinant virus. EC50 values were then calculated by non-linear regression using a four parameter curve logistic equation. The curve fit model employed was XLFit Dose Response One Site Model 200: y=(A+(B/(1+((x/C)^D))))
Where A is the minimum y value, B is the maximum y value, C is the log EC50 value, and D is the slope factor. […] EC50 ranges are as follows: A<0.5 μM; B>0.5 μM.

[3] = human respiratory syncytial virus
[4] = human metapneumovirus, Vero C1008, 120 h

| SMILES | EC50 [1] [nM] | EC50 ([2]; Method-A, MPV-GFP1 in Vero E6 cells, eGFP fluorescence after 5 days) [nM] | EC50 [1, 3] [nM] | EC50 [2, 4] [nM] |
| --- | --- | --- | --- | --- |
| CC1(C(N)=O)COc2c1cc(C(O)(CNC(=O)c1cc(OCC(F)F)n3nc(C4CC4)cc3c1)C(F)(F)F)nc2-c1ccc(F)cc1 (stereo not shown) [Example 68] | < 200 | < 500 |  |  |
| Cc1cnc2c(Cl)cc(C(=O)NC[C@](O)(c3cc4c(c(-c5ccc(F)cc5)n3)OC[C@]4(C)C(N)=O)C(F)(F)F)cc2c1 [Example 70] |  |  | < 200 | < 500 |
| C[C@]1(C(N)=O)COc2c1cc([C@@](O)(CNC(=O)c1cc(Cl)c3ncc(C4CC4)cc3c1)C(F)(F)F)nc2-c1ccc(F)cc1 [Example 72] |  |  | < 200 | < 500 |
| C[C@]1(C(N)=O)COc2c1cc([C@@](O)(CNC(=O)c1cc(Cl)c3ncc(C(F)(F)F)cc3c1)C(F)(F)F)nc2-c1ccc(F)cc1 [Example 73] |  |  | < 200 | < 500 |
| Cc1cc2cc(C(=O)NC[C@](O)(c3cc4c(c(-c5ccc(F)cc5)n3)OC[C@]4(C)C(N)=O)C(F)(F)F)cc(O)c2nc1C [Example 74] |  |  | < 200 | < 500 |
| COc1cc(C(=O)NC[C@](O)(c2cc3c(c(-c4ccc(F)cc4)n2)OC[C@]3(C)C(N)=O)C(F)(F)F)cc2cc(CO)c(C)nc12 [Example 75] |  |  | < 200 | > 500 |
| Cc1nc2c(Cl)cc(C(=O)NC[C@](O)(c3cc4c(c(-c5ccc(F)cc5)n3)OC[C@]4(C)C(N)=O)C(F)(F)F)cc2s1 [Example 77] |  |  | < 200 | < 500 |
| COc1cc(C(=O)NC[C@](O)(c2cc3c(c(-c4ccc(F)cc4)n2)OC[C@]3(C)C(N)=O)C(F)(F)F)cc2cc(C3CC3)c(C)nc12 [Example 78] |  |  | < 200 | > 500 |
| Cc1nc2c(OC3CC3)cc(C(=O)NC[C@](O)(c3cc4c(c(-c5ccc(F)cc5)n3)OC[C@]4(C)C(N)=O)C(F)(F)F)cc2s1 [Example 80] |  |  | < 200 | < 500 |
| COc1cc(C(=O)NC[C@](O)(c2cc3c(c(-c4ccc(F)cc4)n2)OC[C@]3(C)C(N)=O)C(F)(F)F)cc2cc(C3CC3)nnc12 [Example 81] |  |  | < 200 | > 500 |
| COc1cc(C(=O)NC[C@](O)(c2cc3c(c(-c4ccc(F)cc4)n2)OC[C@]3(C)C(N)=O)C(F)(F)F)cc2cc(Cl)c(C)nc12 [Example 82] |  |  | < 200 | < 500 |
| COc1cc(C(=O)NC[C@](O)(c2cc3c(c(-c4ccc(F)cc4)n2)OC[C@]3(C)C(N)=O)C(F)(F)F)cc2cc(C(F)(F)F)c(C)nc12 [Example 83] |  |  | < 200 | < 500 |
| C[C@]1(C(N)=O)COc2c1cc([C@@](O)(CNC(=O)c1cc(Cl)c3nn(C4CC4)cc3c1)C(F)(F)F)nc2-c1ccc(F)cc1 [Example 84] |  |  | < 200 | < 500 |
| C[C@]1(C(N)=O)COc2c1cc([C@@](O)(CNC(=O)c1cc(Cl)c3nn(C4CC4)cc3c1)C(F)(F)F)nc2-c1ccc(F)c(Cl)c1 [Example 85] |  |  | < 200 | < 500 |
| COc1cc(C(=O)NC[C@](O)(c2cc3c(c(-c4ccc(F)c(Cl)c4)n2)OC[C@]3(C)C(N)=O)C(F)(F)F)cc2cc(C3CC3)nnc12 [Example 86] |  |  | < 200 | < 500 |
| C[C@]1(C(N)=O)COc2c1cc([C@@](O)(CNC(=O)c1cc(Cl)c3nc(N)oc3c1)C(F)(F)F)nc2-c1ccc(F)cc1 [Example 91] |  |  | < 200 | > 500 |
| COc1cc(C(=O)NC[C@](O)(c2cc3c(c(-c4ccc(F)cc4)n2)OC[C@]3(C)C(N)=O)C(F)(F)F)cc2cc(C3CC3)nn12 [Example 92] |  |  | < 200 | < 500 |
| C[C@]1(C(N)=O)COc2c1cc([C@@](O)(CNC(=O)c1cc(Cl)c3[nH]c(C4CC4)nc3c1)C(F)(F)F)nc2-c1ccc(F)cc1 [Example 94] |  |  | < 200 | > 500 |
| COc1cc(C(=O)NC[C@](O)(c2cc3c(c(-c4ccc(F)cc4)n2)OC[C@]3(C)C(N)=O)C(F)(F)F)cc2nc(C3CC3)[nH]c12 [Example 95] |  |  | < 200 | > 500 |
| C[C@]1(C(N)=O)COc2c1cc([C@@](O)(CNC(=O)c1cc(OC3CC3)c3nc(C4CC4)sc3c1)C(F)(F)F)nc2-c1ccc(F)cc1 [Example 96] |  |  | < 200 | < 500 |
